Measured values: ChEMBL document CHEMBL2311248, “Discovery of potent myeloid cell leukemia 1 (Mcl-1) inhibitors using fragment-based methods and structure-based design” (J Med Chem, 2013)

Legend:
[1] = molecular target: Bcl-2-like protein 1 (Homo sapiens, UniProt Q07817)
[2] = molecular target: Apoptosis regulator Bcl-2 (Homo sapiens, UniProt P10415)
[3] = molecular target: Induced myeloid leukemia cell differentiation protein Mcl-1 (Homo sapiens, UniProt Q07820)
Induced myeloid leukemia cell differentiation protein Mcl-1, sequence (Q07820 whole entry): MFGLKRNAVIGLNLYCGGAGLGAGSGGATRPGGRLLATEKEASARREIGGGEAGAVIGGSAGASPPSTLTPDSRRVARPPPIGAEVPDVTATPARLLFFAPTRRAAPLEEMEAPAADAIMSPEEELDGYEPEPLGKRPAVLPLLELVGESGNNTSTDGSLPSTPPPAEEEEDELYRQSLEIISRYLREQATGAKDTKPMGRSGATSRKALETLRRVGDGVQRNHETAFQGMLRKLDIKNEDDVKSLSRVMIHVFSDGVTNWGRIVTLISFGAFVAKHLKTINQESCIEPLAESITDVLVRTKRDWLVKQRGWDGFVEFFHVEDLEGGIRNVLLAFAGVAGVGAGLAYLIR

Apoptosis regulator Bcl-2, sequence (P10415 whole entry): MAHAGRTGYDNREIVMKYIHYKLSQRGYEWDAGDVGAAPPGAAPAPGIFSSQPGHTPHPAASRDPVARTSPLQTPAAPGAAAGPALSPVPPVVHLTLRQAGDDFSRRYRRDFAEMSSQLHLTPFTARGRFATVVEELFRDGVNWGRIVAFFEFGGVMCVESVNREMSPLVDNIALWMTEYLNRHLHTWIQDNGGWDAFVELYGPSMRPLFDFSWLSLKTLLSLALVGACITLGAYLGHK
Bcl-2-like protein 1, sequence (Q07817 whole entry): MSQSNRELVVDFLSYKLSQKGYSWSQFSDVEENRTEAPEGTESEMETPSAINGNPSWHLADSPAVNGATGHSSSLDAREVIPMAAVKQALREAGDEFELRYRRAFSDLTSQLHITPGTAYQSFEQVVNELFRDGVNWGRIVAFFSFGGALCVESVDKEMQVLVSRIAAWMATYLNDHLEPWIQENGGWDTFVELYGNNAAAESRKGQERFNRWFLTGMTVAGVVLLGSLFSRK

| SMILES | Ki [3] | Ki [1] | Ki [2] |
| --- | --- | --- | --- |
| O=C(O)c1sc2cccc(Cl)c2c1Cl | – | > 1000 µM | > 1000 µM |
| Cc1cc(OCC(=O)O)ccc1Cl | 103 µM | > 1000 µM | > 1000 µM |
| Cc1cc(OCCCc2c(C(=O)O)sc3cc(Cl)ccc23)cc(C)c1Cl | – | 4.1 µM | 0.8 µM |
| O=C(O)c1sc2cc(Cl)ccc2c1CCCOc1cccc2ccccc12 | – | – | 0.96 µM |
| Cc1cc(OCCCn2c(C(=O)O)cc3ccccc32)ccc1Cl | 1.2 µM | – | – |
| Cc1cc(OCCCn2c(C(=O)O)cc3ccccc32)cc(C)c1Cl | 0.41 µM | – | – |
| Cc1cc(OCCCc2c(C(=O)O)[nH]c3ccccc23)ccc1Cl | – | > 15 µM | 9.1 µM |
| Cc1cc(OCCCc2c(C(=O)O)[nH]c3ccccc23)cc(C)c1Cl | – | > 15 µM | 5.3 µM |
| Cc1cc(OCCCc2c(C(=O)O)[nH]c3cc(Cl)ccc23)ccc1Cl | – | > 15 µM | 1.4 µM |
| O=C(O)c1[nH]c2cc(Cl)ccc2c1CCCOc1cccc2ccccc12 | – | 6.8 µM | 0.96 µM |
| O=C(O)c1[nH]c2cc(Cl)ccc2c1CCCOc1cccc2c1CCCC2 | 0.066 µM | – | – |
| Cc1cc(OCCCc2c(C(=O)O)n(C)c3ccccc23)cc(C)c1Cl | – | > 15 µM | 7.4 µM |
| Cn1c(C(=O)O)c(CCCOc2cccc3ccccc23)c2ccccc21 | – | > 15 µM | > 15 µM |
| Cc1c(C(=O)O)oc2c(C)cccc12 | – | > 1000 µM | > 1000 µM |
| Cc1cccc2c(-c3ccccc3)c(C(=O)O)[nH]c12 | – | > 1000 µM | > 1000 µM |
| Cc1cc(OCCC(=O)O)cc(C)c1Cl | 60 µM | > 1000 µM | > 1000 µM |
| O=C(O)c1oc2ccccc2c1CCc1cccc2ccccc12 | 9.5 µM | – | – |
| O=C(O)c1oc2ccccc2c1CCCc1cccc2ccccc12 | 14.6 µM | – | – |
| O=C(O)c1oc2ccccc2c1CCCOc1cccc2ccccc12 | – | – | 4.3 µM |
| Cc1ccc2c(Cl)c(C(=O)O)sc2c1 | – | 230 µM | > 1000 µM |
| O=C(O)c1cc2ccccc2o1 | > 1000 µM | – | – |
| O=C(O)c1cc2ccccc2[nH]1 [INDOLE-2-CARBOXYLIC ACID] | > 1000 µM | – | – |

Now from value to compound, other results behind:

| Ki [3] | SMILES | Ki [1] | Ki [2] |
| --- | --- | --- | --- |
| 0.29 µM | O=C(O)c1c(CCCOc2cccc3ccccc23)c2ccccc2n1Cc1ccccc1 | > 15 µM | > 15 µM |
| 0.47 µM | O=C(O)c1cc2ccccc2n1CCCOc1cccc2ccccc12 | – | – |
| > 500 µM | NC(=O)c1cc2ccccc2n1CCCOc1cccc2ccccc12 | – | – |
| 86 µM | c1ccc2c(CSc3ncn[nH]3)cccc2c1 | > 1000 µM | > 1000 µM |
| 12.5 µM | O=C(O)c1sc2ccccc2c1CCc1cccc2ccccc12 | – | – |
| 9.6 µM | O=C(O)c1sc2ccccc2c1CCCc1cccc2ccccc12 | – | – |
